Assay [1] has as its target T1, EGFR (d746-750) (Homo sapiens, UniProt P00533, DEL746-750).
T1 construct: purchased SignalChem E10-122JG
The assay is described as follows: Biochemical EGFR inhibition assay (Caliper mobility shift), EGFR (d746-750). The settings on record: read-out: Enz EGFR_Exon19-del746-750 IC50.

Assay [2] deals with T2, EGFR L858R (Homo sapiens, UniProt P00533, L858R).
T2 construct: purchased SignalChem E10-122BG
The experiment in a line: Biochemical EGFR inhibition assay (Caliper mobility shift), EGFR L858R. The settings on record: read-out: Enz EGFR_L858R IC50.

Assay [3] has as its target intracellular phosphorylation of EGFR (Tyr1068) in PC-9 cells (Ex19Del) (Homo sapiens, UniProt P00533, DEL746-750). The experiment in a line: PC-9 pEGFR AlphaLISA assay. It counts as cell-based. The following applies: 4 hours compound incubation, read-out: Ext pEGFR_PC-9 Ex19Del IC50.
The mark [4] stands for this setting: 1.0 mM ATP or ATP Km, room temperature (25° C.).

Like-named read-outs stand apart in the source and are kept apart here.

T2 sequence (P00533 25-1210 L858R): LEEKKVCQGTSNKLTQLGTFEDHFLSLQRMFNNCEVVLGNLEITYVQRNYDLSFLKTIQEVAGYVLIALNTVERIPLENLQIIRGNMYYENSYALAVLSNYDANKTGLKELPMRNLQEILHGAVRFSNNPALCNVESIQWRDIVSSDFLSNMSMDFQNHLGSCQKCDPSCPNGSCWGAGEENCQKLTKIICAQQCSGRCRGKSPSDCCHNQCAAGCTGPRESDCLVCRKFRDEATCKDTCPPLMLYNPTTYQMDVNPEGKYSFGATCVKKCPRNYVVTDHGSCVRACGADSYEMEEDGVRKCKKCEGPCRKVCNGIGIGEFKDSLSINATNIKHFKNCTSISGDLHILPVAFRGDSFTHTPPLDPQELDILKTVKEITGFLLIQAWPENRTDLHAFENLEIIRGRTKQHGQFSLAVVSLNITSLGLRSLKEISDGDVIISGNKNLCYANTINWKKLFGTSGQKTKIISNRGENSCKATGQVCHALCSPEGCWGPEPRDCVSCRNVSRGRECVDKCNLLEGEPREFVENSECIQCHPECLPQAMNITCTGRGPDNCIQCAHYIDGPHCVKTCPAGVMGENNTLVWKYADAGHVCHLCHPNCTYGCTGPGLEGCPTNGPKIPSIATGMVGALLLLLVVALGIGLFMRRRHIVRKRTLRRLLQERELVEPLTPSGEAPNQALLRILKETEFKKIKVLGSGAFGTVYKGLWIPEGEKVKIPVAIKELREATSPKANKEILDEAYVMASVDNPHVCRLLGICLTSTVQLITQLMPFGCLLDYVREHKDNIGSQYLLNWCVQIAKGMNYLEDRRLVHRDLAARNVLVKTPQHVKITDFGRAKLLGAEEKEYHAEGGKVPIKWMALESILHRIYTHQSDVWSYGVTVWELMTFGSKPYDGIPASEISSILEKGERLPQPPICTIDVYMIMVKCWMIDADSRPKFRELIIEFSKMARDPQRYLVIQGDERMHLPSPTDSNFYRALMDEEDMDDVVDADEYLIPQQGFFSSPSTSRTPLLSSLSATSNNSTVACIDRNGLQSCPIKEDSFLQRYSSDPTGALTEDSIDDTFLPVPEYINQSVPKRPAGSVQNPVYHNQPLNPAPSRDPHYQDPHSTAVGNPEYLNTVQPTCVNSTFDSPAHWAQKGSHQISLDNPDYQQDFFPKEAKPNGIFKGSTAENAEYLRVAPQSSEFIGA
T1 sequence (P00533 with tags, fused parts or gaps DEL746-750 limits assumed): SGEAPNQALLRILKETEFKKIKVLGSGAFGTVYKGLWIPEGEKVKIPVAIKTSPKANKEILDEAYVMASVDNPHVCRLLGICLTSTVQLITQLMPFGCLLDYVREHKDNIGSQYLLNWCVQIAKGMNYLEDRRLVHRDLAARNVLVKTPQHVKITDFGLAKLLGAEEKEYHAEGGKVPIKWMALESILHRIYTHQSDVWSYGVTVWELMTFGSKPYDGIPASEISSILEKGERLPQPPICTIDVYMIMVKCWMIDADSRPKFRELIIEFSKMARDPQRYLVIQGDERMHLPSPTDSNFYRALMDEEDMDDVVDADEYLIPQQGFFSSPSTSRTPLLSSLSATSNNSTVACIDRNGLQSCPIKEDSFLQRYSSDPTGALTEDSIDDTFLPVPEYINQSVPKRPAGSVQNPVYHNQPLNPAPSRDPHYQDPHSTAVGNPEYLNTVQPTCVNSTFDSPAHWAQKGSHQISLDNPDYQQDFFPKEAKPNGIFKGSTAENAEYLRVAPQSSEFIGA
Chain of intracellular phosphorylation of EGFR (Tyr1068) in PC-9 cells (Ex19Del) (P00533 with tags, fused parts or gaps DEL746-750): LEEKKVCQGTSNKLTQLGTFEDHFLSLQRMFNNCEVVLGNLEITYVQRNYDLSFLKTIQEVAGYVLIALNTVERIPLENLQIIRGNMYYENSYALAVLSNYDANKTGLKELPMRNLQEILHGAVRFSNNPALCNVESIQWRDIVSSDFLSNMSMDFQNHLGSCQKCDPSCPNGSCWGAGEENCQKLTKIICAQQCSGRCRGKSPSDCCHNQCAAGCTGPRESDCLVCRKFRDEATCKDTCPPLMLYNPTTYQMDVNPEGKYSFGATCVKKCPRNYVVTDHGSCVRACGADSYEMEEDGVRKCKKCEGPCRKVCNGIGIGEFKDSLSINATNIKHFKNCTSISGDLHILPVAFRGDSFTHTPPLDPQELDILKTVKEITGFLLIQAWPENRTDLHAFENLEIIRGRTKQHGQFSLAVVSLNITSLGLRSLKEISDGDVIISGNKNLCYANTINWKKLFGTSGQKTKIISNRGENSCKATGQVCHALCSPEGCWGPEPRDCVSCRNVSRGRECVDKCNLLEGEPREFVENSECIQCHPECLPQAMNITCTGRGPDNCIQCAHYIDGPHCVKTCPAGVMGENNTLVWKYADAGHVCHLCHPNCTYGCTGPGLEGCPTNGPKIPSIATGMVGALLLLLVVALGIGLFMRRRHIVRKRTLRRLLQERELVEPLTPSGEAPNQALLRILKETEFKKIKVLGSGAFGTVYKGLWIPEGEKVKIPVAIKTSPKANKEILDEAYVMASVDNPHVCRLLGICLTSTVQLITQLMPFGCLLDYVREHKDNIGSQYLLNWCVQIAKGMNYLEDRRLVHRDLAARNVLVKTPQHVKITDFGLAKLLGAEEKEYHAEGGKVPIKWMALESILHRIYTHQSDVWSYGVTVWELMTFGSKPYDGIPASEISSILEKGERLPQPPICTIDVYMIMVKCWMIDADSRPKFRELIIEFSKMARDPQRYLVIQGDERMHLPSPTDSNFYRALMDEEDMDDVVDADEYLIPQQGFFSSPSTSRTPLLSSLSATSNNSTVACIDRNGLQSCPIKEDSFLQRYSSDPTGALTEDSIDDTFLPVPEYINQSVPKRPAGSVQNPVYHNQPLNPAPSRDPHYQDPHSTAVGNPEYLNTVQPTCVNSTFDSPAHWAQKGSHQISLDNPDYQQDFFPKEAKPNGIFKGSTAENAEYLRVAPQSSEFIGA

For orientation: IC50 means the midpoint of a concentration-inhibition curve. For `C[C@@H](CN(C)C)Oc1cc(N2CC3CC(C2)O3)cc2ncnc(Nc3ccc4ncccc4c3)c12` (single isomer, unassigned) [Example 68, 7-(6-oxa-3-azabicyclo[3.1.1]heptan-3-yl)-5-(((S)-1-(dimethylamino)propan-2-yl)oxy)-N-(quinolin-6-yl)quinazolin-4-amine or 7-(6-oxa-3-azabicyclo[3.1.1]heptan-3-yl)-5-(((R)-1-(dimethylamino)propan-2-yl)oxy)-N-(quinolin-6-yl)quinazolin-4-amine], the IC50 was below 10 nM in assay [1] (setting [4]), 10.1 to 50 nM in assay [2] (setting [4]) and at most 10 nM in assay [3].
As for `CN1CCC[C@@H](Oc2cc(-c3cnn(C)c3)cc3ncnc(Nc4ccc5ncccc5c4F)c23)C1` [Example 36, (R)—N-(5-fluoroquinolin-6-yl)-7-(1-methyl-1H-pyrazol-4-yl)-5-((1-methylpiperidin-3-yl)oxy)quinazolin-4-amine], the IC50 in assay [1] is below 10 nM; in assay [2], 10.1 to 50 nM; in assay [3], 10.1 to 50 nM.
For the compound `C[C@@H](Oc1cc(N2CC[C@H](C(C)(C)O)C2)cc2ncnc(Nc3ccc4ncccc4c3F)c12)C1COC1` [Example 62, 2—((S)-1-(4-((5-fluoroquinolin-6-yl)amino)-5-((R)-1-(oxetan-3-yl)ethoxy)quinazolin-7-yl)pyrrolidin-3-yl)propan-2-ol], the IC50 in assay [1] is below 10 nM; in assay [2], below 10 nM; in assay [3] it was at most 10 nM.
As for `C[C@H](CN(C)C)Oc1nc(N2CC[C@H](C(C)(C)O)C2)cc2ncnc(Nc3ccc4ncccc4c3F)c12` [Example 75, 2—((S)-1-(5-(((R)-1-(dimethylamino)propan-2-yl)oxy)-4-((5-fluoroquinolin-6-yl)amino)pyrido[4,3-d]pyrimidin-7-yl)pyrrolidin-3-yl)propan-2-ol], the IC50 in assay [1] is below 10 nM; in assay [2], 10.1 to 50 nM; in assay [3], 10.1 to 50 nM.
With `C[C@@H](Oc1cc(-c2cnn(C)c2)cc2ncnc(Nc3ccc4ncc(F)cc4c3)c12)C1COC1` [Example 3, (R)—N-(3-fluoroquinolin-6-yl)-7-(1-methyl-1H-pyrazol-4-yl)-5-(1-(oxetan-3-yl)ethoxy)quinazolin-4-amine], the IC50 in assay [1] is below 10 nM; in assay [2] it was below 10 nM; in assay [3], at most 10 nM.
As for `C[C@H](CN(C)C)Oc1cc(N2CCC(C)(O)CC2)cc2ncnc(Nc3ccc4ncccc4c3F)c12` [Example 94, (R)-1-(5-((1-(dimethylamino)propan-2-yl)oxy)-4-((5-fluoroquinolin-6-yl)amino)quinazolin-7-yl)-4-methylpiperidin-4-ol], the IC50 in assay [1] is below 10 nM; in assay [2] it was 10.1 to 50 nM; in assay [3], 10.1 to 50 nM.
For the compound `C[C@H](CN(C)C)Oc1cc(C2CC2)cc2ncnc(Nc3ccc4ncccc4c3F)c12` [Example 149, (R)-7-cyclopropyl-5-((1-(dimethylamino)propan-2-yl)oxy)-N-(5-fluoroquinolin-6-yl)quinazolin-4-amine], the IC50 is 10.1 to 50 nM in assay [1], above 50.1 nM in assay [2] and above 50.1 nM in assay [3].
On to `COc1cc(O[C@H](C)C2COC2)c2c(Nc3ccc4ncccc4c3F)ncnc2c1` [Example 56, (R)—N-(5-fluoroquinolin-6-yl)-7-methoxy-5-(1-(oxetan-3-yl)ethoxy)quinazolin-4-amine], for which the IC50 is below 10 nM in assay [1], below 10 nM in assay [2] and at most 10 nM in assay [3].
As for `C[C@H](CN(C)C)Oc1cc(N2CCO[C@@H](C(F)F)C2)cc2ncnc(Nc3ccc4ncccc4c3F)c12` (single isomer, unassigned) [Example 99b, 7-((R)-2-(difluoromethyl)morpholino)-5-(((R)-1-(dimethylamino)propan-2-yl)oxy)-N-(5-fluoroquinolin-6-yl)quinazolin-4-amine or 7-((S)-2-(difluoromethyl)morpholino)-5-(((R)-1-(dimethylamino)propan-2-yl)oxy)-N-(5-fluoroquinolin-6-yl)], the IC50 in assay [1] (setting [4]) is below 10 nM; in assay [2] (setting [4]), 10.1 to 50 nM; in assay [3], 10.1 to 50 nM.
Turning to `C[C@H](CN(C)C)Oc1cc(N2CC3CC(C2)O3)cc2ncnc(Nc3ccc4ncccc4c3F)c12` [Example 70, 7-(6-oxa-3-azabicyclo[3.1.1]heptan-3-yl)-5-(((R)-1-(dimethylamino)propan-2-yl)oxy)-N-(5-fluoroquinolin-6-yl)quinazolin-4-amine], the figures for the IC50 in assay [1], in assay [2] and in assay [3] were below 10 nM, 10.1 to 50 nM and at most 10 nM, respectively.
For `Cc1cnn(-c2cc(O[C@H](C)CN(C)C)c3c(Nc4ccc5ncccc5c4F)ncnc3c2)c1` [Example 83, (R)-5-((1-(dimethylamino)propan-2-yl)oxy)-N-(5-fluoroquinolin-6-yl)-7-(4-methyl-1H-pyrazol-1-yl)quinazolin-4-amine], in that order: below 10 nM, below 10 nM and at most 10 nM.
For `C[C@H](CN(C)C)Oc1cc(N2CC(C)(O)C2)cc2ncnc(Nc3ccc4ncccc4c3F)c12` [Example 93, (R)-1-(5-((1-(dimethylamino)propan-2-yl)oxy)-4-((5-fluoroquinolin-6-yl)amino)quinazolin-7-yl)-3-methylazetidin-3-ol] the same measures were below 10 nM, 10.1 to 50 nM and 10.1 to 50 nM.
Take `C[C@H](Oc1cc(-c2cnn(C)c2)cc2ncnc(Nc3ccc4ncccc4c3F)c12)C(=O)N(C)C` (single isomer, unassigned) [Example 137, (S)-2-((4-((5-fluoroquinolin-6-yl)amino)-7-(1-methyl-1H-pyrazol-4-yl)quinazolin-5-yl)oxy)-N,N-dimethylpropanamide or (R)-2-((4-((5-fluoroquinolin-6-yl)amino)-7-(1-methyl-1H-pyrazol-4-yl)quinazolin-5-yl)oxy)-N,N-dimethylpropanamide]: the IC50 was below 10 nM in assay [1] (setting [4]), below 10 nM in assay [2] (setting [4]) and at most 10 nM in assay [3].
For `CC(CN(C)C)Oc1cc(N2CC3CC(C2)O3)cc2ncnc(Nc3ccc4ncccc4c3)c12` (single isomer, unassigned) [Example 67, 7-(6-oxa-3-azabicyclo[3.1.1]heptan-3-yl)-5-(((R)-1-(dimethylamino)propan-2-yl)oxy)-N-(quinolin-6-yl)quinazolin-4-amine or 7-(6-oxa-3-azabicyclo[3.1.1]heptan-3-yl)-5-(((S)-1-(dimethylamino)propan-2-yl)oxy)-N-(quinolin-6-yl)quinazolin-4-amine], the IC50 in assay [1], in assay [2] and in assay [3] was 10.1 to 50 nM in each case.
As to `C[C@H](CN(C)C1CCC1)Oc1cc(-c2cnn(C)c2)cc2ncnc(Nc3ccc4ncccc4c3F)c12` [Example 115, (R)-5-((1-(cyclobutyl(methyl)amino)propan-2-yl)oxy)-N-(5-fluoroquinolin-6-yl)-7-(1-methyl-1H-pyrazol-4-yl)quinazolin-4-amine], the IC50 in assay [1] was below 10 nM; in assay [2] it was below 10 nM; in assay [3], at most 10 nM.
Take `C[C@H](CN(C)C)Oc1cc(-c2cnn(C)c2)cc2ncnc(Nc3ccc4nccnc4c3F)c12` [Example 109, (R)-5-((1-(dimethylamino)propan-2-yl)oxy)-N-(5-fluoroquinoxalin-6-yl)-7-(1-methyl-1H-pyrazol-4-yl)quinazolin-4-amine]: the half-maximal inhibitory concentration (IC50) in assay [1] was 10.1 to 50 nM; in assay [2], above 50.1 nM; in assay [3], above 50.1 nM.
For the compound `C[C@@H](Oc1cc(N2CC3CC(C2)O3)cc2ncnc(Nc3ccc4ncccc4c3F)c12)C1COC1` [Example 59, 7-(6-oxa-3-azabicyclo[3.1.1]heptan-3-yl)-N-(5-fluoroquinolin-6-yl)-5-((R)-1-(oxetan-3-yl)ethoxy)quinazolin-4-amine], the IC50 in assay [1] was below 10 nM; in assay [2], below 10 nM; in assay [3], at most 10 nM.
For the compound `CN(C)C[C@H](Oc1cc(-c2cnn(C)c2)cc2ncnc(Nc3ccc4ncccc4c3F)c12)C(F)F` (single isomer, unassigned) [Example 37, (S)-5-((3-(dimethylamino)-1,1-difluoropropan-2-yl)oxy)-N-(5-fluoroquinolin-6-yl)-7-(1-methyl-1H-pyrazol-4-yl)quinazolin-4-amine or (R)-5-((3-(dimethylamino)-1,1-difluoropropan-2-yl)oxy)-N-(5-fluoroquinolin-6-yl)-7-(1-methyl-1H-pyrazol-4-yl)quinazolin-4-amine], the concentration for half-maximal inhibition (IC50) in assay [1] (setting [4]) is below 10 nM; in assay [2] (setting [4]), below 10 nM; in assay [3] it was at most 10 nM.
With `C[C@H](CN(C)C)Oc1cc(-c2cn(C)nc2OC(F)F)cc2ncnc(Nc3ccc4ncccc4c3F)c12` [Example 118, (R)-7-(3-(difluoromethoxy)-1-methyl-1H-pyrazol-4-yl)-5-((1-(dimethylamino)propan-2-yl)oxy)-N-(5-fluoroquinolin-6-yl)quinazolin-4-amine], the IC50 in assay [1] was below 10 nM; in assay [2], below 10 nM; in assay [3] it was at most 10 nM.
`C[C@H](Oc1cc(-c2cnn(C)c2)cc2ncnc(Nc3ccc4ncccc4c3F)c12)[C@@H]1CCCN1C` (single isomer, unassigned) [Example 147]: the figures for the IC50 in assay [1] (setting [4]), in assay [2] (setting [4]) and in assay [3] were below 10 nM, below 10 nM and at most 10 nM, respectively.
With `C[C@H](CN(C)C)Oc1cc(-c2cnn(C)c2)cc2ncnc(Nc3cnc4ncccc4c3)c12` [Example 40, (R)-5-((1-(dimethylamino)propan-2-yl)oxy)-7-(1-methyl-1H-pyrazol-4-yl)-N-(1,8-naphthyridin-3-yl)quinazolin-4-amine], the IC50 in assay [1] is below 10 nM; in assay [2], 10.1 to 50 nM; in assay [3], at most 10 nM.

Values taken from patent publication US12662465B2, “EGFR inhibitors” (Blueprint Medicines Corporation, priority 2021, dated 2026).
